In patent US12187699B2, “GSPT1 compounds and methods of use of the novel compounds” (BRISTOL-MYERS SQUIBB COMPANY, priority 2022, dated 2025):

Biological target: T1, ePL-tagged GSPT1 (Homo sapiens, UniProt P15170+Q96SW2)
T1 construct: expressed in transfected cells; host or cells: DF15 multiple myeloma cells
Assay: GSPT1 DiscoverX Degradation Assay
Assay type: cell-based
Conditions: DF15 multiple myeloma cells expressing ePL-tagged GSPT1; twenty hours; minimum of percent of control curve (Ataluren control Y constant=0, DMSO control = Y max)
Method: GSPT1 DiscoverX Degradation Assay.
Compounds were dispensed by an acoustic dispenser (ATS Acoustic Transfer System from EDC Biosystems) into a 384-well in a 10 pt dose response curve using 3 fold dilutions starting at 10 uM and going down to 0.0005 uM in DMSO. A DMSO control is added to the assay. […] Assay plates were incubated at 37° C. with 5% CO2 for twenty hours. After incubation, 25 μl of the InCELL Hunter™ Detection Reagent Working Solution (DiscoverX, cat #96-0002, Fremont, CA) was added to each well and incubated at room temperature for 30 minutes protected from light. After 30 minutes, luminescence was read on a PHERAstar luminometer (Cary, NC).
The minimum Y is reference to the Y constant. In the GSPT1 degradation assay, we use Ataluren® (luciferase inhibitor) as the control with a Y constant=0. The maximum limit is the Y max DMSO control. All percent of control GSPT1 degradation curves were processed and evaluated using Activity Base (IDBS).

T1 sequence (P15170 whole entry): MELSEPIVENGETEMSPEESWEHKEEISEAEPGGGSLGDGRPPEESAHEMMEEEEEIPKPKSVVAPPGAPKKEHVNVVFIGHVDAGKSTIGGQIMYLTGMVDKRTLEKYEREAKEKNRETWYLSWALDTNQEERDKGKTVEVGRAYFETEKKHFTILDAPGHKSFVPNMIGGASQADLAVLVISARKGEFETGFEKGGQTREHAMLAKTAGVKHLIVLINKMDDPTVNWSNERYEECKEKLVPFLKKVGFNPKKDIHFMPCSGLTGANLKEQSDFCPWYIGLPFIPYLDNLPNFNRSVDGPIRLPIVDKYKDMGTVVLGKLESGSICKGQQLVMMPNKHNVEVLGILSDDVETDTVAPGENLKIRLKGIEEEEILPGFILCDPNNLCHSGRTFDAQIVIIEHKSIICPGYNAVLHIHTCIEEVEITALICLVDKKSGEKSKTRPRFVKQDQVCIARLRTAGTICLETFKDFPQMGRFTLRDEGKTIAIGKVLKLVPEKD
T1 sequence (Q96SW2 whole entry): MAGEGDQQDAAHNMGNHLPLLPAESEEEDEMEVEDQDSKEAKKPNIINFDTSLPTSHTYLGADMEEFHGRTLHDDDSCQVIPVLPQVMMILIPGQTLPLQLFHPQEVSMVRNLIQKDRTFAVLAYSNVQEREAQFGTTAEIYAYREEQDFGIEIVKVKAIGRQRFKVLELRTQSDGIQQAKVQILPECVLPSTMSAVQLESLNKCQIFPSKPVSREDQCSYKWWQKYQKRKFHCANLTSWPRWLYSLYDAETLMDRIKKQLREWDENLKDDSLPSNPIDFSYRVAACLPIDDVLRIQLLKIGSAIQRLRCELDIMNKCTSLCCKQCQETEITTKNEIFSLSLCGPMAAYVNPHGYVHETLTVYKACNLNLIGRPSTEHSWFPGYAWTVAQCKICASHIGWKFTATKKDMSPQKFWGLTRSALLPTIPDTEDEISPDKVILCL
T1 sequence (Q16531 whole entry partner): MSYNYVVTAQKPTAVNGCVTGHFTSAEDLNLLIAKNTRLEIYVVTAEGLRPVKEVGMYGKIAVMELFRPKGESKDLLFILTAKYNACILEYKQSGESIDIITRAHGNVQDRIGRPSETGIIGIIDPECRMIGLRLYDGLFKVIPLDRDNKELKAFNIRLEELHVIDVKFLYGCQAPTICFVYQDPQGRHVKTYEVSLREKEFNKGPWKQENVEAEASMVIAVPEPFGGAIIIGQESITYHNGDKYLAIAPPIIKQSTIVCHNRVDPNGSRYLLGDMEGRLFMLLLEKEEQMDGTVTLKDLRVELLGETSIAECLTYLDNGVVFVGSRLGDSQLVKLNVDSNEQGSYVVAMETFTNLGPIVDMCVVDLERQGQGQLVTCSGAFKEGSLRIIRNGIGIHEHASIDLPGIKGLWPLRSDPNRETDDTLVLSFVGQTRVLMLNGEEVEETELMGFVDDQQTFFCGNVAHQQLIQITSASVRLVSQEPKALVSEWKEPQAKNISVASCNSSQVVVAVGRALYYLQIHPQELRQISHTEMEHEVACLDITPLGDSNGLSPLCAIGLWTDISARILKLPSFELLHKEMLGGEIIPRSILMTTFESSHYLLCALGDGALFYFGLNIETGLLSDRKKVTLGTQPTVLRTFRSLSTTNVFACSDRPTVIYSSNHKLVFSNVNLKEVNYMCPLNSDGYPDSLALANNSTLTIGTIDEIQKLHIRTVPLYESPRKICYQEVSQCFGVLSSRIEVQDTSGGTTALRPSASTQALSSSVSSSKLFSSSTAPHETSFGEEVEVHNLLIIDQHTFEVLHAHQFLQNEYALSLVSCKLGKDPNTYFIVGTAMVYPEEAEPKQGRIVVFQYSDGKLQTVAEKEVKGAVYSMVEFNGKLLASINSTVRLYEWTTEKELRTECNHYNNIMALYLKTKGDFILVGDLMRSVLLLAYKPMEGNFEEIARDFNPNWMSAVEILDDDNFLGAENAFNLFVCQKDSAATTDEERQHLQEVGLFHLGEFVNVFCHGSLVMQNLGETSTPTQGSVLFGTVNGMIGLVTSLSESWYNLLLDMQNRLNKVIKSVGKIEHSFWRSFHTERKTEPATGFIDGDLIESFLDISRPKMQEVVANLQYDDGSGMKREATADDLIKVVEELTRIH

GSPT1 Degradation Ymin	Structure (SMILES)
3.00	O=C1CCC(N2Cc3cc(CNC(=O)Nc4ccc(OCc5ccc(CO)cc5)cc4)ccc3C2=O)C(=O)N1 (stereo not drawn) [Example 1, 1-((2-(2,6-dioxopiperidin-3-yl)-1-oxoisoindolin-5-yl)methyl)-3-(4-((4-(hydroxymethyl)benzyl)oxy)phenyl)urea]
4.34	NCc1ccc(COc2ccc(NC(=O)NCc3ccc4c(c3)CN(C3CCC(=O)NC3=O)C4=O)cc2)cc1 (stereo not drawn) [Example 2, 1-[4-[[4-(aminomethyl)phenyl]methoxy]phenyl]-3-[[2-(2,6-dioxo-3-piperidyl)-1-oxo-isoindolin-5-yl]methyl]urea]
7.30	NCc1ccccc1COc1ccc(NC(=O)NCc2ccc3c(c2)CN(C2CCC(=O)NC2=O)C3=O)cc1 (stereo not drawn) [Example 3, 1-(4-((2-(aminomethyl)benzyl)oxy)phenyl)-3-((2-(2,6-dioxopiperidin-3-yl)-1-oxoisoindolin-5-yl)methyl)urea]
6.80	NCc1cccc(COc2ccc(NC(=O)NCc3ccc4c(c3)CN(C3CCC(=O)NC3=O)C4=O)cc2)c1 (stereo not drawn) [Example 4, 1-(4-((3-(aminomethyl)benzyl)oxy)phenyl)-3-((2-(2,6-dioxopiperidin-3-yl)-1-oxoisoindolin-5-yl)methyl)urea]
3.00	Nc1cccc(COc2ccc(NC(=O)NCc3ccc4c(c3)CN(C3CCC(=O)NC3=O)C4=O)cc2)c1 (stereo not drawn) [Example 5, 1-(4-((3-aminobenzyl)oxy)phenyl)-3-((2-(2,6-dioxopiperidin-3-yl)-1-oxoisoindolin-5-yl)methyl)urea]
3.00	O=C1CCC(N2Cc3cc(CNC(=O)Nc4ccc(OCc5ccccc5)cc4)ccc3C2=O)C(=O)N1 (stereo not drawn) [Example 6, 1-[4-(benzyloxy)phenyl]-3-{[2-(2,6-dioxopiperidin-3-yl)-1-oxo-2,3-dihydro-1H-isoindol-5-yl]methyl}urea]
4.00	O=C1CCC(N2Cc3cc(CNC(=O)Nc4ccc(OCc5cccc(CO)c5)cc4)ccc3C2=O)C(=O)N1 (stereo not drawn) [Example 7, 1-((2-(2,6-dioxopiperidin-3-yl)-1-oxoisoindolin-5-yl)methyl)-3-(4-((3-(hydroxymethyl)benzyl)oxy)phenyl)urea]
4.00	O=C1CCC(N2Cc3cc(CNC(=O)Nc4ccc(OCc5ccccc5CO)cc4)ccc3C2=O)C(=O)N1 (stereo not drawn) [Example 8, 1-((2-(2,6-dioxopiperidin-3-yl)-1-oxoisoindolin-5-yl)methyl)-3-(4-((2-(hydroxymethyl)benzyl)oxy)phenyl)urea]
3.50	O=C1CCC(N2Cc3cc(CNC(=O)Nc4ccc(OCc5ccccc5O)cc4)ccc3C2=O)C(=O)N1 (stereo not drawn) [Example 9, 1-((2-(2,6-dioxopiperidin-3-yl)-1-oxoisoindolin-5-yl)methyl)-3-(4-((2-hydroxybenzyl)oxy)phenyl)urea]
4.00	O=C1CCC(N2Cc3cc(CNC(=O)Nc4ccc(OCc5ccccc5O)cc4)ccc3C2=O)C(=O)N1 (stereo not drawn) [Example 10, 1-((2-(2,6-dioxopiperidin-3-yl)-1-oxoisoindolin-5-yl)methyl)-3-(4-((2-hydroxybenzyl)oxy)phenyl)urea]
6.71	NCc1ccc(COc2ccc(NC(=O)NCc3ccc4c(c3)CN(C3CCC(=O)NC3=O)C4=O)cc2)c(F)c1 (stereo not drawn) [Example 11, 1-(4-{[4-(aminomethyl)-2-fluorophenyl]methoxy}phenyl)-3-{[2-(2,6-dioxopiperidin-3-yl)-1-oxo-2,3-dihydro-1H-isoindol-5-yl]methyl}urea]
5.39	Cc1cc(CN)ccc1COc1ccc(NC(=O)NCc2ccc3c(c2)CN(C2CCC(=O)NC2=O)C3=O)cc1 (stereo not drawn) [Example 12, 1-(4-{[4-(aminomethyl)-2-methylphenyl]methoxy}phenyl)-3-{[2-(2,6-dioxopiperidin-3-yl)-1-oxo-2,3-dihydro-1H-isoindol-5-yl]methyl}urea]
6.75	NCc1ccc(COc2ccc(NC(=O)NCc3ccc4c(c3)CN(C3CCC(=O)NC3=O)C4=O)cc2)nc1 (stereo not drawn) [Example 13, 1-(4-{[5-(aminomethyl)pyridin-2-yl]methoxy}phenyl)-3-{[2-(2,6-dioxopiperidin-3-yl)-1-oxo-2,3-dihydro-1H-isoindol-5-yl]methyl}urea]
5.83	NCc1ccc(COc2ccc(NC(=O)NCc3ccc4c(c3)CN(C3CCC(=O)NC3=O)C4=O)cc2)cn1 (stereo not drawn) [Example 14, 1-(4-{[6-(aminomethyl)pyridin-3-yl]methoxy}phenyl)-3-{[2-(2,6-dioxopiperidin-3-yl)-1-oxo-2,3-dihydro-1H-isoindol-5-yl]methyl}urea]
3.10	NCc1cnc(COc2ccc(NC(=O)NCc3ccc4c(c3)CN(C3CCC(=O)NC3=O)C4=O)cc2)nc1 (stereo not drawn) [Example 15, 1-(4-{[5-(aminomethyl)pyrimidin-2-yl]methoxy}phenyl)-3-{[2-(2,6-dioxopiperidin-3-yl)-1-oxo-2,3-dihydro-1H-isoindol-5-yl]methyl}urea]
12.67	NCc1ccc(COc2ccc(NC(=O)NCc3ccc4c(c3)CN(C3CCC(=O)NC3=O)C4=O)cc2)nn1 (stereo not drawn) [Example 16, 1-(4-{[6-(aminomethyl)pyridazin-3-yl]methoxy}phenyl)-3-{[2-(2,6-dioxopiperidin-3-yl)-1-oxo-2,3-dihydro-1H-isoindol-5-yl]methyl}urea]
15.91	Cc1cc(NC(=O)NCc2ccc3c(c2)CN(C2CCC(=O)NC2=O)C3=O)ccc1OCc1ccc(CN)cc1 (stereo not drawn) [Example 17, 1-(4-{[4-(aminomethyl)phenyl]methoxy}-3-methylphenyl)-3-{[2-(2,6-dioxopiperidin-3-yl)-1-oxo-2,3-dihydro-1H-isoindol-5-yl]methyl}urea]
54.45	NCc1ccc(COc2ccc(NC(=O)NCc3ccc4c(c3)CN(C3CCC(=O)NC3=O)C4=O)cc2F)cc1 (stereo not drawn) [Example 18, 1-(4-{[4-(aminomethyl)phenyl]methoxy}-3-fluorophenyl)-3-{[2-(2,6-dioxopiperidin-3-yl)-1-oxo-2,3-dihydro-1H-isoindol-5-yl]methyl}urea]
6.55	NCc1ccc(COc2ccc(NC(=O)NCc3ccc4c(c3)CN(C3CCC(=O)NC3=O)C4=O)nn2)cc1 (stereo not drawn) [Example 19, 1-(6-{[4-(aminomethyl)phenyl]methoxy}pyridazin-3-yl)-3-{[2-(2,6-dioxopiperidin-3-yl)-1-oxo-2,3-dihydro-1H-isoindol-5-yl]methyl}urea]
7.50	NCc1ccc(COc2ccc(NC(=O)NCc3ccc4c(c3)CN(C3CCC(=O)NC3=O)C4=O)cn2)cc1 (stereo not drawn) [Example 20, 1-(6-{[4-(aminomethyl)phenyl]methoxy}pyridin-3-yl)-3-{[2-(2,6-dioxopiperidin-3-yl)-1-oxo-2,3-dihydro-1H-isoindol-5-yl]methyl}urea]
10.44	CCc1cc(CN)ccc1COc1ccc(NC(=O)NCc2ccc3c(c2)CN(C2CCC(=O)NC2=O)C3=O)cc1 (stereo not drawn) [Example 21, 1-(4-{[4-(aminomethyl)-2-ethylphenyl]methoxy}phenyl)-3-{[2-(2,6-dioxopiperidin-3-yl)-1-oxo-2,3-dihydro-1H-isoindol-5-yl]methyl}urea]
